Source: article PMC8428568, “Discovery of re-purposed drugs that slow SARS-CoV-2 replication in human cells” (PLoS Pathogens, 2021)
Structures can show the parent of a compound that is named as a salt. Where two headings read alike, the source gives them in different places.

Assays:
[1] = test system: SARS-CoV-2-ΔOrf7a-NLuc virus; assay: microbe, parasite or virus in culture; assay type: cell-based
recombinant NLuc = assay type: biochemical
[2] = recombinant NLuc activity relative to DMSO
[3] = recombinant NLuc, first read column
[4] = recombinant NLuc, fourth read column
[5] = recombinant NLuc, third read column

Row | SMILES | % activity in Vero 100PFU screen [1] | Relative Recombinant NLUC (recombinant NLuc; [2]) | Reads Counts per second (read 1) (recombinant NLuc; [3]) | Reads Counts per second (read 4) (recombinant NLuc; [4]) | Reads Counts per second (read 2) (recombinant NLuc; recombinant NLuc) | Reads Counts per second (read 3) (recombinant NLuc; [5]) | Reads Counts per second (read 1) (recombinant NLuc) | Reads Counts per second (read 3) (recombinant NLuc) | Reads Counts per second (read 4) (recombinant NLuc) | Relative Recombinant NLUC (recombinant NLuc) | activity at 10 µM ([1]; Severe acute respiratory syndrome coronavirus 2, Vero, 72 h, […], 1 = untreated, 0 = total inhibition, read-out: Mean relative luminescence (n=4))
1 | C[C@H]1CN(C[C@H](Cc2ccccc2)C(=O)NCC(=O)O)CC[C@@]1(C)c1cccc(O)c1 [Alvimopan] | 169% | 0.9202 | 338215 Counts per second | 352328 Counts per second | 350063 Counts per second | 350082 Counts per second | – | – | – | – | –
2 | C[C@H](CCC(=O)O)[C@H]1CC[C@H]2[C@@H]3CC[C@@H]4C[C@H](O)CC[C@]4(C)[C@H]3CC[C@]12C [Lithocholic Acid] | 205% | 0.9342 | 350340 Counts per second | 353302 Counts per second | – | 350189 Counts per second | – | – | – | – | –
3 | CCS(=O)(=O)N1CC(CC#N)(n2cc(-c3ncnc4[nH]ccc34)cn2)C1 [Baricitinib phosphate] | 199% | 0.9095 | 337511 Counts per second | 349331 Counts per second | 341167 Counts per second | 346435 Counts per second | – | – | – | – | –
4 | C[N+]1(C)CCCC(OC(=O)C(O)(c2ccccc2)c2ccccc2)C1 (stereo not drawn) [Mepenzolate Bromide] | 175% | – | – | – | – | – | 330221 Counts per second | 339233 Counts per second | 336213 Counts per second | 0.8896 | –
5 | O=S(=O)(O)c1cc(O)ccc1O [Ethamsylate] | 167% | 1.029 | 388357 Counts per second | 386776 Counts per second | – | 391647 Counts per second | – | – | – | – | –
6 | CNCCC(Oc1ccc(C(F)(F)F)cc1)c1ccccc1.Cl (stereo not drawn) [Fluoxetine HCl] | 2.12% | – | 317425 Counts per second | 307707 Counts per second | – | 314163 Counts per second | – | – | – | – | –
7 | COc1ccc2c(c1OC)C(=O)O[C@@H]2[C@H]1c2c(cc3c(c2OC)OCO3)CCN1C [Noscapine HCl] | 213% | 0.9502 | 358232 Counts per second | 354994 Counts per second | – | 362883 Counts per second | – | – | – | – | –
8 | Cc1cnc(NC(=O)C2=C(O)c3ccccc3S(=O)(=O)N2C)s1 [Meloxicam (Mobic), Meloxicam] | 178% | 0.824 | 308460 Counts per second | 312953 Counts per second | – | 309204 Counts per second | – | – | – | – | –
9 | NC(=O)c1ccc[n+]([C@@H]2O[C@H](COP(=O)([O-])OP(=O)(O)OC[C@H]3O[C@@H](n4cnc5c(N)ncnc54)[C@H](O)[C@@H]3O)[C@@H](O)[C@H]2O)c1 [NAD+] | 164% | 1.016 | 385544 Counts per second | 376264 Counts per second | – | 386401 Counts per second | – | – | – | – | –
10 | CC(C)(C)NC(=O)N[C@H](C(=O)N1C[C@H]2[C@@H]([C@H]1C(=O)NC(CC1CCC1)C(=O)C(N)=O)C2(C)C)C(C)(C)C (stereo partly drawn) [Boceprevir] | 178% | 0.9177 | 341877 Counts per second | 349417 Counts per second | 348889 Counts per second | 346623 Counts per second | – | – | – | – | –
11 | OB1OCc2cc(F)ccc21 [AN-2690] | 171% | 0.8709 | 329173 Counts per second | 324160 Counts per second | 329953 Counts per second | 332892 Counts per second | – | – | – | – | –
12 | N#CC[C@H](C1CCCC1)n1cc(-c2ncnc3[nH]ccc23)cn1 [Ruxolitinib (INCB018424), Ruxolitinib] | 169% | 0.8381 | 314540 Counts per second | 316727 Counts per second | – | 317488 Counts per second | – | – | – | – | –
13 | O=C(O)/C=C/c1ccc(O)c(O)c1 [Caffeic acid] | 173% | 1.054 | 390077 Counts per second | 403178 Counts per second | – | 399891 Counts per second | – | – | – | – | –
14 | Cn1c(=O)cc(N2CCC[C@@H](N)C2)n(Cc2ccccc2C#N)c1=O [Alogliptin Benzoate] | 166% | 0.863 | 316906 Counts per second | 323679 Counts per second | 332493 Counts per second | 331161 Counts per second | – | – | – | – | –
15 | Cc1ccnc2c1NC(=O)c1cccnc1N2C1CC1 [Nevirapine] | 187% | 0.9932 | 371882 Counts per second | 373316 Counts per second | – | 379254 Counts per second | – | – | – | – | –
16 | Cc1[nH]cnc1CN1CCc2c(c3ccccc3n2C)C1=O [Alosetron Hydrochloride] | 177% | 0.8898 | 328498 Counts per second | 339698 Counts per second | 338671 Counts per second | 337783 Counts per second | – | – | – | – | –
17 | O=C(O)[C@H]1O[C@@H](Oc2cc3oc(-c4ccccc4)cc(=O)c3c(O)c2O)[C@H](O)[C@@H](O)[C@@H]1O [Baicalin] | 164% | 0.9439 | 353023 Counts per second | 357276 Counts per second | 358945 Counts per second | 357158 Counts per second | – | – | – | – | –
18 | CC(C)c1cc(C(=O)N2Cc3ccc(CN4CCN(C)CC4)cc3C2)c(O)cc1O [AT13387] | 191% | 0.7978 | 289397 Counts per second | 303901 Counts per second | 302902 Counts per second | 309451 Counts per second | – | – | – | – | –
19 | CC[C@@H]1/C=C(\C)C[C@H](C)C[C@H](OC)[C@H]2O[C@@](O)(C(=O)C(=O)N3CCCC[C@H]3C(=O)O[C@H](/C(C)=C/[C@@H]3CC[C@@H](O)[C@H](OC)C3)[C@H](C)[C@@H](O)CC1=O)[C@H](C)C[C@@H]2OC [Ascomycin(FK 520), Ascomycin] | 171% | 0.8402 | 312887 Counts per second | 314498 Counts per second | 325360 Counts per second | 316950 Counts per second | – | – | – | – | –
20 | NC(=O)CC[C@H](N)C(=O)O [L-Glutamine] | 204% | 0.9419 | 349150 Counts per second | 350740 Counts per second | – | 361792 Counts per second | – | – | – | – | –
21 | C=CCNC1=C2C[C@@H](C)C[C@H](OC)[C@H](O)[C@@H](C)/C=C(\C)[C@H](OC(N)=O)[C@@H](OC)/C=C\C=C(/C)C(=O)NC(=CC1=O)C2=O [17-AAG (KOS953), 17-AAG] | 209% | 0.9121 | 339450 Counts per second | 348179 Counts per second | 347084 Counts per second | 343744 Counts per second | – | – | – | – | –
22 | C[C@](N)(Cc1ccc(O)c(O)c1)C(=O)O [Methyldopa] | 175% | 0.9666 | 361429 Counts per second | 367357 Counts per second | – | 364798 Counts per second | – | – | – | – | –
23 | CC(C)(C)c1ccc(C(=O)CCCN2CCC(OC(c3ccccc3)c3ccccc3)CC2)cc1 [Ebastine] | – | – | 323732 Counts per second | 326603 Counts per second | – | 324560 Counts per second | – | – | – | – | 0.793%
24 | COc1ccccc1OCC(O)CN1CCN(CC(=O)Nc2c(C)cccc2C)CC1 (stereo not drawn) [Ranolazine] | 167% | 0.9679 | 359507 Counts per second | 367791 Counts per second | – | 367539 Counts per second | – | – | – | – | –
25 | O=C(O)COCCN1CCN(C(c2ccccc2)c2ccc(Cl)cc2)CC1 (stereo not drawn) [Cetirizine] | 161% | 0.4486 | 170134 Counts per second | 171706 Counts per second | – | 168670 Counts per second | – | – | – | – | –
26 | N[C@@H](Cc1ccc(O)c(O)c1)C(=O)O [Levodopa] | 233% | 0.839 | 304150 Counts per second | 316577 Counts per second | – | 322065 Counts per second | – | – | – | – | –
